Each block holds one compound with its values, some of them ahead of it.
System: 876862-298-R-J1-PDC complex spheroids, viability % test/control
Assay: Anticancer human tumor 876862-298-R-J1-PDC patient-derived endometrial carcinoma cell line growth inhibition [CLK]
Conditions: for IC50: curve of first compound; for viability, T/C: stronger effect = lower value
Method in brief: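 Multi-cell-type spheroids combined patient-derived tumor cells with HUVEC endothelial cells and human mesenchymal stem cells. Paired agents were dosed in half-log steps down from about clinical Cmax, or from 10 microM where Cmax was unknown.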

[1] = second compound 0.0316 µM, first compound 0.0316 µM
[2] = second compound 0.0316 µM, first compound 0.1 µM
[3] = second compound 0.0316 µM, first compound 0.316 µM
[4] = second compound 0.0316 µM, first compound 1 µM
[5] = second compound 0.1 µM, first compound 0.0316 µM
[6] = second compound 0.1 µM, first compound 0.1 µM
[7] = second compound 0.1 µM, first compound 0.316 µM
[8] = second compound 0.1 µM, first compound 1 µM
[9] = second compound 0.316 µM, first compound 0.0316 µM
[10] = second compound 0.316 µM, first compound 0.1 µM
[11] = second compound 0.316 µM, first compound 0.316 µM
[12] = second compound 0.316 µM, first compound 1 µM
[13] = second compound 1 µM, first compound 0.0316 µM
[14] = second compound 1 µM, first compound 0.1 µM
[15] = second compound 1 µM, first compound 0.316 µM
[16] = second compound 1 µM, first compound 1 µM
[17] = second compound 3.16 µM, first compound 0.0316 µM
[18] = second compound 3.16 µM, first compound 0.1 µM
[19] = second compound 3.16 µM, first compound 0.316 µM
[20] = second compound 3.16 µM, first compound 1 µM
[21] = second compound 10 µM, first compound 0.0316 µM
[22] = second compound 10 µM, first compound 0.1 µM
[23] = second compound 10 µM, first compound 0.316 µM
[24] = second compound 10 µM, first compound 1 µM
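Also: spheroids exposed to drugs for 7 days before readout.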
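For viability, T/C in this document: 100% = DMSO vehicle control wells.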

IC50 (second compound 0.0316 µM): < 31.6 nM
IC50 (second compound 0.1 µM): < 31.6 nM
IC50 (second compound 0.316 µM): < 31.6 nM
IC50 (second compound 1 µM): < 31.6 nM
IC50 (second compound 3.16 µM): < 31.6 nM
IC50 (second compound 10 µM): < 31.6 nM
SMILES: CC(=O)O[C@H]1C(=O)[C@@]2(C)[C@H]([C@H](OC(=O)c3ccccc3)[C@]3(O)C[C@H](OC(=O)[C@H](O)[C@@H](NC(=O)c4ccccc4)c4ccccc4)C(C)=C1C3(C)C)[C@]1(OC(C)=O)CO[C@@H]1C[C@@H]2O + CNC(=O)c1ccc(Nc2nc(OC3CCCC3)c3c(-c4ccc5nc(C)oc5c4)c[nH]c3n2)c(OC)c1
viability, T/C [1]: 32.5%
viability, T/C [2]: 37.6%
viability, T/C [3]: 37.8%
viability, T/C [4]: 36.5%
viability, T/C (second compound 0.0316 µM, first compound 3.16 µM): 37.3%
viability, T/C (second compound 0.0316 µM, first compound 10 µM): 43.6%
viability, T/C [5]: 51.2%
viability, T/C [6]: 45.7%
viability, T/C [7]: 45.6%
viability, T/C [8]: 42.8%
viability, T/C (second compound 0.1 µM, first compound 3.16 µM): 49.8%
viability, T/C (second compound 0.1 µM, first compound 10 µM): 50.9%
viability, T/C [9]: 41.5%
viability, T/C [10]: 45.6%
viability, T/C [11]: 43.8%
viability, T/C [12]: 41.4%
viability, T/C (second compound 0.316 µM, first compound 3.16 µM): 47.8%
viability, T/C (second compound 0.316 µM, first compound 10 µM): 45.9%
viability, T/C [13]: 32.2%
viability, T/C [14]: 31%
viability, T/C [15]: 33.2%
viability, T/C [16]: 35.4%
viability, T/C (second compound 1 µM, first compound 3.16 µM): 36%
viability, T/C (second compound 1 µM, first compound 10 µM): 40.8%
viability, T/C [17]: 23.1%
viability, T/C [18]: 22.9%
viability, T/C [19]: 24.7%
viability, T/C [20]: 26.6%
viability, T/C (second compound 3.16 µM, first compound 3.16 µM): 30.4%
viability, T/C (second compound 3.16 µM, first compound 10 µM): 33.6%
viability, T/C [21]: 21.6%
viability, T/C [22]: 21%
viability, T/C [23]: 23.4%
viability, T/C [24]: 26.1%
viability, T/C (second compound 10 µM, first compound 3.16 µM): 25.3%
viability, T/C (second compound 10 µM, first compound 10 µM): 30%

IC50 (second compound 0.0316 µM): < 3.16 nM
IC50 (second compound 0.1 µM): < 3.16 nM
IC50 (second compound 0.316 µM): < 3.16 nM
IC50 (second compound 1 µM): < 3.16 nM
IC50 (second compound 3.16 µM): < 3.16 nM
IC50 (second compound 10 µM): < 3.16 nM
SMILES: CCc1c2c(nc3ccc(O)cc13)-c1cc3c(c(=O)n1C2)COC(=O)[C@]3(O)CC + CNC(=O)c1ccc(Nc2nc(OC3CCCC3)c3c(-c4ccc5nc(C)oc5c4)c[nH]c3n2)c(OC)c1
viability, T/C (second compound 0.0316 µM, first compound 0.00316 µM): 24%
viability, T/C (second compound 0.0316 µM, first compound 0.01 µM): 9.43%
viability, T/C [1]: 8.16%
viability, T/C [2]: 5.8%
viability, T/C [3]: 5.07%
viability, T/C [4]: 3.65%
viability, T/C (second compound 0.1 µM, first compound 0.00316 µM): 16.5%
viability, T/C (second compound 0.1 µM, first compound 0.01 µM): 7.94%
viability, T/C [5]: 7.35%
viability, T/C [6]: 4.4%
viability, T/C [7]: 4.15%
viability, T/C [8]: 3.49%
viability, T/C (second compound 0.316 µM, first compound 0.00316 µM): 14.8%
viability, T/C (second compound 0.316 µM, first compound 0.01 µM): 6.28%
viability, T/C [9]: 5.77%
viability, T/C [10]: 4.17%
viability, T/C [11]: 4.42%
viability, T/C [12]: 3.57%
viability, T/C (second compound 1 µM, first compound 0.00316 µM): 9.55%
viability, T/C (second compound 1 µM, first compound 0.01 µM): 5.23%
viability, T/C [13]: 4.77%
viability, T/C [14]: 4.25%
viability, T/C [15]: 3.64%
viability, T/C [16]: 2.78%
viability, T/C (second compound 3.16 µM, first compound 0.00316 µM): 7.99%
viability, T/C (second compound 3.16 µM, first compound 0.01 µM): 5.52%
viability, T/C [17]: 4.06%
viability, T/C [18]: 4.3%
viability, T/C [19]: 3.4%
viability, T/C [20]: 2.05%
viability, T/C (second compound 10 µM, first compound 0.00316 µM): 6.88%
viability, T/C (second compound 10 µM, first compound 0.01 µM): 4.97%
viability, T/C [21]: 5.13%
viability, T/C [22]: 4.85%
viability, T/C [23]: 3.25%
viability, T/C [24]: 1.96%

Source: PubChem BioAssay AID2060607 (Molecular Pharmacology Branch, DTP, NCI, 2025)
